Target: T1, human IRAK4 (Homo sapiens, UniProt Q9NWZ3)
T1 construct: GST (N); made in house; host or cells: baculovirus-infected Hi5 (BTI-TN-5B1-4) insect cells
T1 sequence (Q9NWZ3 1-460): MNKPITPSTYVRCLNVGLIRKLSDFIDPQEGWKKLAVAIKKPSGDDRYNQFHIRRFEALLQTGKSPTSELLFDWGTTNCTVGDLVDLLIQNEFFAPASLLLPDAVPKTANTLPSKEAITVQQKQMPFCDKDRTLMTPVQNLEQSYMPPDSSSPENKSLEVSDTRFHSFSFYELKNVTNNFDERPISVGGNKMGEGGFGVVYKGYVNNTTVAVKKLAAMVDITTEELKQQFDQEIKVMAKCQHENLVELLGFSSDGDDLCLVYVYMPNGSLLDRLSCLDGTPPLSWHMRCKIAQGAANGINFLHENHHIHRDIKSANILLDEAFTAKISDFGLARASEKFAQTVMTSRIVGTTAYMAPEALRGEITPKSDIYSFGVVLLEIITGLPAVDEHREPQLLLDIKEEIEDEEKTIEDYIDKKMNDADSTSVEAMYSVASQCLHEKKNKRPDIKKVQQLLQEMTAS
Assay: Human IRAK4 kinase activity inhibition assay (IRAK4 TR-FRET assay)
Assay type: biochemical
Conditions: 1 mM ATP, GST-human IRAK4, average or median values
Outline: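 GST-IRAK4 from insect cells (about 0.2 nM, linear range) was preincubated 15 min with compound (11 concentrations, 20 µM–0.073 nM) in HEPES pH 7.5 with MgCl2 and DTT before kinase reaction on a biotinylated peptide. Phosphopeptide was detected by TR-FRET (Eu anti-mouse-IgG/anti-phosphoserine/streptavidin-XL665, 1 h at 22°C) as the 665/620 nm ratio, normalized to no-compound and no-enzyme controls.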

IC50 [nM] | SMILES
11.4 | CC1(O)CCN(C2CN(c3nc(NC4CCS(=O)(=O)CC4)nc4c3cnn4-c3cccc(C(F)(F)F)c3)C2)CC1 [Example I-80, 1-(1-{6-[(1,1-dioxidotetrahydro-2H-thiopyran-4-yl)amino]-1-[3-(trifluoromethyl)phenyl]-1H-pyrazolo[3,4-d]pyrimidin-4-yl}azetidin-3-yl)-4-methylpiperidin-4-ol]
83.2 | CCS(=O)(=O)N1CC(Nc2nc(N3CC(N4CCOCC4)C3)c3cnn(-c4cccc(C(F)(F)F)c4)c3n2)C1 [Example I-81, N-[1-(ethylsulfonyl)azetidin-3-yl]-4-[3-(morpholin-4-yl)azetidin-1-yl]-1-[3-(trifluoromethyl)phenyl]-1H-pyrazolo[3,4-d]pyrimidin-6-amine]
11.5 | CCS(=O)(=O)[C@H]1C[C@H](Nc2nc(N3CC(N4CCOCC4)C3)c3cnn(-c4cccc(C(F)(F)F)c4)c3n2)C1 [Example I-82, N-[trans-3-(ethylsulfonyl)cyclobutyl]-4-[3-(morpholin-4-yl)azetidin-1-yl]-1-[3-(trifluoromethyl)phenyl]-1H-pyrazolo[3,4-d]pyrimidin-6-amine]
48.3 | CCS(=O)(=O)N1CC(Nc2nc(N3C[C@@H](O)[C@H](O)C3)c3cnn(-c4cccc(C(F)(F)F)c4)c3n2)C1 [Example I-84, (3R,4R)-1-(6-{[1-(ethylsulfonyl)azetidin-3-yl]amino}-1-[3-(trifluoromethyl)phenyl]-1H-pyrazolo[3,4-d]pyrimidin-4-yl)pyrrolidine-3,4-diol]
7.87 | CCS(=O)(=O)[C@H]1C[C@H](Nc2nc(N3C[C@@H](O)[C@H](F)C3)c3cnn(-c4cccc(C(F)(F)F)c4)c3n2)C1 [Example I-87, (3R,4R)-1-(6-{[(1r,3R)-3-(ethylsulfonyl)cyclobutyl]amino}-1-[3-(trifluoromethyl)phenyl]-1H-pyrazolo[3,4-d]pyrimidin-4-yl)-4-fluoropyrrolidin-3-ol]
24.7 | CC(C)(O)C1CCN(c2nc(N[C@H]3C[C@@](C)(O)C3)nc3c2cnn3-c2cccc(C(F)(F)F)c2)CC1 [Example I-90, cis-3-({4-[4-(2-hydroxypropan-2-yl)piperidin-1-yl]-1-[3-(trifluoromethyl)phenyl]-1H-pyrazolo[3,4-d]pyrimidin-6-yl}amino)-1-methylcyclobutanol]
11.2 | CS(=O)(=O)[C@H]1C[C@H](Nc2nc(N3CCC(O)CC3)c3cnn(-c4cccc(C(F)(F)F)c4)c3n2)C1 [Example I-93, 1-(6-{[trans-3-(methylsulfonyl)cyclobutyl]amino}-1-[3-(trifluoromethyl)phenyl]-1H-pyrazolo[3,4-d]pyrimidin-4-yl)piperidin-4-ol]
25 | CCS(=O)(=O)[C@H]1C[C@H](Nc2nc(N3C[C@H](O)[C@@H](F)C3)c3cnn(-c4cccc(C(F)(F)F)c4)c3n2)C1 [Example I-95, (3S,4S)-1-(6-{[(1r,3S)-3-(ethylsulfonyl)cyclobutyl]amino}-1-[3-(trifluoromethyl)phenyl]-1H-pyrazolo[3,4-d]pyrimidin-4-yl)-4-fluoropyrrolidin-3-ol]
8.1 | O[C@H]1CN(c2nc(N[C@H]3C[C@H](O)C3)nc3c2cnn3-c2cccc(C(F)(F)F)c2)C[C@@H]1F [Example I-96, (3S,4S)-4-fluoro-1-(6-{[(1r,3S)-3-hydroxycyclobutyl]amino}-1-[3-(trifluoromethyl)-phenyl]-1H-pyrazolo[3,4-d]pyrimidin-4-yl)pyrrolidin-3-ol]
8.16 | O[C@H]1CN(c2nc(N[C@H]3C[C@@H](O)C3)nc3c2cnn3-c2cccc(C(F)(F)F)c2)C[C@@H]1F [Example I-97, (3S,4S)-4-fluoro-1-(6-{[(1s,3R)-3-hydroxycyclobutyl]amino}-1-[3-(trifluoromethyl)-phenyl]-1H-pyrazolo[3,4-d]pyrimidin-4-yl)pyrrolidin-3-ol]
16.2 | CS(=O)(=O)[C@H]1C[C@H](Nc2nc(N3CC(F)C3)c3cnn(-c4cccc(C(F)(F)F)c4)c3n2)C1 [Example I-99, 4-(3-fluoroazetidin-1-yl)-N-[trans-3-(methylsulfonyl)cyclobutyl]-1-[3-(trifluoromethyl)-phenyl]-1H-pyrazolo[3,4-d]pyrimidin-6-amine]
49.9 | OC1CCN(c2nc(N[C@H]3C[C@H](O)C3)nc3c2cnn3-c2cccc(C(F)(F)F)c2)CC1 [Example I-100]
49.9 | C[C@@]1(O)CCN(c2nc(N[C@H]3C[C@H](O)C3)nc3c2cnn3-c2cccc(C(F)(F)F)c2)C1 [Example I-102, (3R)-1-(6-{[(1r,3R)-3-hydroxycyclobutyl]amino}-1-[3-(trifluoromethyl)phenyl]-1H-pyrazolo[3,4-d]pyrimidin-4-yl)-3-methylpyrrolidin-3-ol]
11.4 | C[C@@]1(O)CCN(c2nc(N[C@H]3C[C@H](S(C)(=O)=O)C3)nc3c2cnn3-c2cccc(C(F)(F)F)c2)C1 [Example I-103, (3R)-3-methyl-1-(6-{[(1r,3R)-3-(methylsulfonyl)cyclobutyl]amino}-1-[3-(trifluoromethyl)-phenyl]-1H-pyrazolo[3,4-d]pyrimidin-4-yl)pyrrolidin-3-ol]
11.8 | CC1(O)CCN(C2CN(c3nc(N[C@H]4C[C@](C)(O)C4)nc4c3cnn4-c3cccc(C(F)(F)F)c3)C2)CC1 [Example I-110, 1-(1-{6-[(trans-3-hydroxy-3-methylcyclobutyl)amino]-1-[3-(trifluoromethyl)phenyl]-1H-pyrazolo[3,4-d]pyrimidin-4-yl}azetidin-3-yl)-4-methylpiperidin-4-ol]
16.8 | CC(C)(O)C1CN(c2nc(N[C@H]3C[C@@H](O)C3)nc3c2cnn3-c2cccc(C(F)(F)F)c2)C1 [Example I-116, cis-3-({4-[3-(2-hydroxypropan-2-yl)azetidin-1-yl]-1-[3-(trifluoromethyl)phenyl]-1H-pyrazolo[3,4-d]pyrimidin-6-yl}amino)cyclobutanol]
23.4 | O[C@@H]1CCN(c2nc(N[C@H]3C[C@@H](O)C3)nc3c2cnn3-c2cccc(C(F)(F)F)c2)C1 [Example I-117, (3R)-1-(6-{[(1s,3S)-3-hydroxycyclobutyl]amino}-1-[3-(trifluoromethyl)phenyl]-1H-pyrazolo[3,4-d]pyrimidin-4-yl)pyrrolidin-3-ol]
5.13 | O[C@H]1C[C@@H](Nc2nc(N3CC(N4CCC(F)(F)C4)C3)c3cnn(-c4cccc(C(F)(F)F)c4)c3n2)C1 [Example I-118, cis-3-({4-[3-(3,3-difluoropyrrolidin-1-yl)azetidin-1-yl]-1-[3-(trifluoromethyl)phenyl]-1H-pyrazolo[3,4-d]pyrimidin-6-yl}amino)cyclobutanol]
16.5 | O[C@H]1C[C@H](Nc2nc(N3CC(N4CC(F)C4)C3)c3cnn(-c4cccc(C(F)(F)F)c4)c3n2)C1 [Example I-119, trans-3-({4-(3-fluoro[1,3'-biazetidin]-1'-yl)-1-[3-(trifluoromethyl)phenyl]-1H-pyrazolo[3,4-d]pyrimidin-6-yl}amino)cyclobutanol]
16.6 | C[C@]1(O)C[C@H](Nc2nc(N3CC(N4CC(F)C4)C3)c3cnn(-c4cccc(C(F)(F)F)c4)c3n2)C1 [Example I-120, trans-3-({4-(3-fluoro[1,3'-biazetidin]-1'-yl)-1-[3-(trifluoromethyl)phenyl]-1H-pyrazolo[3,4-d]pyrimidin-6-yl}amino)-1-methylcyclobutanol]

Source: patent EP3800188A1, “SUBSTITUTED PYRAZOLOPYRIMIDINES AS IRAK4 INHIBITORS” (Bayer AG, priority 2019, dated 2021)
